target: T1, Human complement C1s enzyme (Homo sapiens, UniProt P09871); assay: Human C1s Enzyme Assay; assay type: biochemical; details: human C1s 1.16 nM, 5 min preincubation, substrate Z-L-Lys-SBzl 100 μM, A405; read-out: C1s Protease Activity
T1 construct: purified from human serum, Complement Technology, Inc; purchased Complement Technology, Inc; host or cells: human serum
T1 sequence (P09871 438-688 limits assumed): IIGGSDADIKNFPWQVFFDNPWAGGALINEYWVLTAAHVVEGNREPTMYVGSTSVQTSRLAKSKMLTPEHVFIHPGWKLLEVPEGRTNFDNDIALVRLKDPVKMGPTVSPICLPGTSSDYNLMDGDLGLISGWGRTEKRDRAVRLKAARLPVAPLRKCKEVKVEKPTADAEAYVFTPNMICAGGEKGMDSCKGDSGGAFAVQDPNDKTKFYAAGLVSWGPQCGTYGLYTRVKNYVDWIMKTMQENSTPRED
T1 sequence (P09871 16-437 partner limits assumed): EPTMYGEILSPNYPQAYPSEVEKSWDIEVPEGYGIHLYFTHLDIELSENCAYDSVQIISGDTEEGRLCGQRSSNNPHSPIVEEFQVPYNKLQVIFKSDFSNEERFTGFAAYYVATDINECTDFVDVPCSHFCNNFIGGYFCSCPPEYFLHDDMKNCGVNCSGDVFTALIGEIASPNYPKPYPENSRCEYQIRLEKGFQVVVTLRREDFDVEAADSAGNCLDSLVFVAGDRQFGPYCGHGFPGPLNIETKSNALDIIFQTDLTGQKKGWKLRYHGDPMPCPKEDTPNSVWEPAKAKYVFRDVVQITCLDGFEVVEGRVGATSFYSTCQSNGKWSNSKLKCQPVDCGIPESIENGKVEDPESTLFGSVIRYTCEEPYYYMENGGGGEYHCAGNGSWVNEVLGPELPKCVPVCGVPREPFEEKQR
Procedure, shortened: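 IC50 values were fitted by nonlinear regression to rates measured as A405 every 30 s for 30 min. The thioester substrate Z-L-Lys-SBzl and Ellman's reagent were each at 100 μM. Serum-derived C1s at 1.16 nM final had 5 min of room-temperature preincubation with compound (pH 7.5 Tris buffer, 1 M NaCl).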

| Structure (SMILES) | IC50 |
| --- | --- |
| N=C(N)c1ccc(CNC(=O)[C@@H]2CC3(CN2C(=O)CNC(=O)c2ccc(Oc4ccccc4)cc2)OCCO3)cn1 [Compound 71, (S)-N-((6-carbamimidoylpyridin-3-yl)methyl)-7-((4-phenoxybenzoyl)glycyl)-1,4-dioxa-7-azaspiro[4.4]nonane-8-carboxamide] | < 0.1 µM |
| N=C(N)c1csc(CNC(=O)[C@@H]2C[C@H](C3CCCCC3)CN2C(=O)CNC(=O)c2ccc(Oc3ccccc3)cc2)c1 [Compound 73, (2S,4R)-N-((4-carbamimidoylthiophen-2-yl)methyl)-4-cyclohexyl-1-((4-phenoxy-benzoyl)glycyl)pyrrolidine-2-carboxamide] | < 0.1 µM |
| CC(=O)NCCOC[C@@]12C[C@@H]1N(C(=O)CNC(=O)c1ccc(Oc3ccccc3)cc1)[C@H](C(=O)NCc1cc(C(=N)N)cs1)C2 [Compound 74, (1S,3S,5R)-5-((2-acetamidoethoxy)methyl)-N-((4-carbamimidoylthiophen-2-yl)methyl)-2-((4-phenoxybenzoyl)glycyl)-2-azabicyclo[3.1.0]hexane-3-carboxamide] | < 0.1 µM |
| N=C(N)c1csc(CNC(=O)CNC(=O)CNC(=O)c2ccc(Oc3ccccc3)cc2)c1 [Compound 77, N-(2-((2-(((4-carbamimidoylthiophen-2-yl)methyl)amino)-2-oxoethyl)amino)-2-oxoethyl)-4-phenoxybenzamide] | 0.1 to 1 µM |
| C[C@H](O)[C@H](O)[C@@H](O)[C@@H](O)CNCC(=O)N1[C@H]2C[C@@]2(C)C[C@H]1C(=O)NCc1nc(C(=N)N)cs1 [Compound 78, (1S,3S,5S)-N-((4-carbamimidoylthiazol-2-yl)methyl)-5-methyl-2-(((2S,3S,4S,5S)-2,3,4,5-tetrahydroxyhexyl)glycyl)-2-azabicyclo[3.1.0]hexane-3-carboxamide] | > 1 µM |
| CCOC(=O)c1ccc(OCCCC(=O)NCC(=O)N2[C@H]3C[C@@]3(C)C[C@H]2C(=O)NCc2cc(C(=N)N)cs2)cc1 [Compound 79, Ethyl 4-(4-((2-((1S,3S,5S)-3-(((4-carbamimidoylthiophen-2-yl)methyl)carbamoyl)-5-methyl-2-azabicyclo[3.1.0]hexan-2-yl)-2-oxoethyl)amino)-4-oxobutoxy)benzoate] | < 0.1 µM |

Results, then the molecule that gave them:

| IC50 | Structure (SMILES) |
| --- | --- |
| < 0.1 µM | N=C(N)c1csc(CNC(=O)[C@@H]2C[C@@H](Oc3ccccc3)CN2C(=O)CNC(=O)CCCOc2ccccc2)c1 [Compound 69, (2S,4R)-N-((4-carbamimidoylthiophen-2-yl)methyl)-4-phenoxy-1-((4-phenoxy-butanoyl)glycyl)pyrrolidine-2-carboxamide] |
| < 0.1 µM | CC(COc1ccccc1)CC(=O)NCC(=O)N1CC2(C[C@H]1C(=O)NCc1cc(C(=N)N)cs1)OCCO2 (stereo partly drawn) [Compound 70, (8S)-N-((4-carbamimidoylthiophen-2-yl)methyl)-7-((3-methyl-4-phenoxybutanoyl)glycyl)-1,4-dioxa-7-azaspiro[4.4]nonane-8-carboxamide] |
| < 0.1 µM | COC[C@@]1(F)C[C@@H](C(=O)NCc2cc(C(=N)N)cs2)N(C(=O)CNC(=O)CCCOc2ccccc2)C1 [Compound 72, (2S,4R)-N-((4-carbamimidoylthiophen-2-yl)methyl)-4-fluoro-4-(methoxymethyl)-1-((4-phenoxybutanoyl)glycyl)pyrrolidine-2-carboxamide] |
| 0.1 to 1 µM | COCCCC(=O)NCC(=O)N1[C@H]2C[C@@]2(C)C[C@H]1C(=O)NCc1cc(C(=N)N)cs1 [Compound 75, (1S,3S,5S)-N-((4-carbamimidoylthiophen-2-yl)methyl)-2-((4-methoxybutanoyl)-glycyl)-5-methyl-2-azabicyclo[3.1.0]hexane-3-carboxamide] |
| 0.1 to 1 µM | C[C@@]12C[C@@H]1N(C(=O)CNC(=O)CCCOc1ccc(S(C)(=N)=O)cc1)[C@H](C(=O)NCc1cc(C(=N)N)cs1)C2 (stereo partly drawn) [Compound 76, (1S,3S,5S)-N-((4-carbamimidoylthiophen-2-yl)methyl)-5-methyl-2-((4-(4-(S-methyl-sulfonimidoyl)phenoxy)butanoyl)glycyl)-2-azabicyclo[3.1.0]hexane-3-carboxamide] |
